Reference: patent publication US10118903B2, “Aminotriazole-based KDM1A inhibitors as epigenetic modulators” (MUSC FOUNDATION FOR RESEARCH DEVELOPMENT, priority 2014, dated 2018)
Entries after “also recorded” stand apart in the source; their conditions may differ.

What was measured:
[1] = molecular target: human recombinant spermine oxidase (Homo sapiens, UniProt Q9NWM0); test: Inhibition of spermine oxidase; type: biochemical
Description: The assay procedure is very similar to the assay used for LSD1, except that the reaction is conducted by human recombinant spermine oxidase. the assay for C1 and related analogues was conducted as previously described (Goodwin et al., 2011).

[2] = test system: H3K4me2 levels in Calu 6 human anaplastic lung tumor cell line; test: H3K4 methylation in tumor cells by Western blot; type: cell-based; conditions: Calu 6 cells
Description: To verify that C1 and C15 have epigenetic effects in tumor cells, changes in H3K4 methylation in the Calu 6 human anaplastic lung tumor cell line were monitored, as shown in FIG. 4.
Following treatment, cells were washed twice in sterile filtered cold 1×PBS. Cells were then lysed in 200 μL of lysis buffer (20 mM Tris, 150 mM NaCl, 1 mM EDTA, 1 mM EGTA, 1 mM β-glycerol, 2.5 mM sodium pyrophosphate, and 1% Triton X-100) Protease and phosphatase inhibitors were added to these buffers (1:100 dilutions of phosphatase inhibitor cocktail I and II and protease inhibitor cocktail; Sigma). The cells were then incubated on ice for 15 min, and insoluble material was pelleted by centrifugation at 4° C.
Protein concentrations were determined by Pierce BCA protein assay kit (Thermo Sci, Product #23225). Cell lysates were subjected to SDS-PAGE, and Western blot analysis was performed with the appropriate antibodies. Primary antibodies against H3K4me2, H3K4me1, and LSD1 were from Cell Signaling; Histone H3 primary antibody was from Millipore. Proteins were visualized by enhanced chemiluminescence (ECL).

[3] = molecular target: recombinant human LSD1/CoREST (Homo sapiens, UniProt O60341); test: IC50 determination by dose-response curve against recombinant LSD1/CoREST; type: biochemical
Description: Using a dose-response curve, the IC50 of C1 and C15 were calculated.
(§1) In short, 10 μM of compound was combined with the fluorometic substrate 10-acetyl-3,7-dihydroxyphenoxazine, horseradish peroxidase, human recombinant LSD1, and 100 μM dimethylated lysine at residue 4 [ARTK(diMe)[…]] (Seq. ID No: 1) for 30 mins at 37° C. Plates were read using an excitation wavelength of 535 nm and an emission wavelength of 590 nm with a SpectraMax M5 Microplate reader.

[4] = test system: HDAC1/CoREST/LSD1 complex; test: Pull-down of HDAC1/CoREST/LSD1 complex with HDAC1 antibody, Western blot for CoREST; type: cell-based; conditions: primary feline cardiomyocytes, 3 h, 5 μM
Description: Co-immunoprecipitation (pull down) of intact protein complexes works by selecting an antibody that targets a known protein that is believed to be a member of a larger complex of proteins. By targeting this known member with an antibody it may become possible to pull the entire protein complex out of solution and thereby identify unknown members of the complex. This works when the proteins involved in the complex bind to each other tightly, making it possible to pull multiple members of the complex out of solution by latching onto one member with an antibody. This concept of pulling protein complexes out of solution is sometimes referred to as a “pull-down”. Co-immunoprecipitation is a powerful technique that is used regularly by molecular biologists to analyze protein-protein interactions. The co-repressor HDAC:CoREST:LSD1 complex was initially pulled down with an antibody for HDAC1 and a Western blot for CoREST was performed.

[5] = molecular target: T1, human recombinant LSD1 (Homo sapiens, UniProt O60341); test: LSD1 inhibitor screening assay (Cayman Chemical kit, fluorometric); type: biochemical; conditions: 10 μM compound; Chembridge analogues table
T1 construct: purchased Cayman Chemical Item #700120
Description: LSD1 Inhibitor Screening Assay:
as §1

[6] = test system: mouse heart; test: Langendorff isolated heart model, ischemia/reperfusion; conditions: versus vehicle
Description: (§2) In the Langendorff preparation, the heart is removed with preservation of a portion of the afferent and efferent blood vessels; it is then perfused in a reverse fashion via the aorta, usually with a nutrient rich, oxygenated solution (e.g. Krebs-Henseleit solution or Tyrode's solution). The backwards pressure causes the aortic valve to shut, forcing the solution into the coronary vessels, which normally supply the heart tissue with blood. This feeds nutrients and oxygen to the cardiac muscle, allowing it to continue beating for several hours after its removal from the animal. This is a useful preparation because it allows the addition of drugs (via the perfusate) and observation of their effect on the heart without the complications involved with in vivo experimentation, such as neuronal and hormonal effects from living animal (Broadley, K. J., 1970). A pressure transducer is inserted to measure a number of cardiac performance parameters including left ventricular developed pressure, left ventricular end diastolic pressure, heart rate, etc. Following the Langendorff procedure, the myocardium is cut into cross sections, and infarcted tissue is identified by the inability to take up stain; thus infarcted areas appear white, while healthy areas appear red.
The compounds described herein may be used to protect the myocardium from injury following an ischemic event. In FIG. 6, a mouse heart was subjected to ischemia by ligation of the afferent vessel in a Langendorff preparation, as described above. Prior to the induction of ischemia, hearts were either pre-treated with vehicle, verlindamycin or C1. […] In FIG. 8, the results of an experiment to measure infarcted tissue in a myocardial cross-section are shown. Results are expressed as a percentage of the area of infarct with respect to total surface area. […] The HDAC1/CoREST/LSD1 complex was pulled down with an LSD1 antibody and a Western blot for CoREST was performed.

[7] = test system: LSD1:CoREST complex; test: Pull-down of HDAC1/CoREST/LSD1 complex with LSD1 antibody, Western blot for CoREST; type: cell-based; conditions: primary feline cardiomyocytes, 3 h, 1 μM; LSD1 antibody pull-down
Description: Co-immunoprecipitation analysis for LSD1:CoREST complex following treatment from primary rat cardiomyocytes with 5 μM and 1 μM C1 was performed as described above. Lysates pulled down with LSD1 antibody and western blotted for CoREST (n=2).

[8] = test system: murine myocardium; test: Infarct area in myocardial cross-section after induced myocardial ischemia; type: in vivo, mouse; conditions: 10 mg/kg; versus vehicle
Description: as §2, with “Following the Langendorff procedure, the myocardium is cut into cross sections, and infarcted tissue is identified by the inability to take up stain; thus infarcted areas appear white, while healthy areas appear red.” left out
The compounds described herein may be used to protect the myocardium from injury following an ischemic event. […] Results are expressed as a percentage of the area of infarct with respect to total surface area. […]

Chain of human recombinant spermine oxidase (Q9NWM0 whole entry): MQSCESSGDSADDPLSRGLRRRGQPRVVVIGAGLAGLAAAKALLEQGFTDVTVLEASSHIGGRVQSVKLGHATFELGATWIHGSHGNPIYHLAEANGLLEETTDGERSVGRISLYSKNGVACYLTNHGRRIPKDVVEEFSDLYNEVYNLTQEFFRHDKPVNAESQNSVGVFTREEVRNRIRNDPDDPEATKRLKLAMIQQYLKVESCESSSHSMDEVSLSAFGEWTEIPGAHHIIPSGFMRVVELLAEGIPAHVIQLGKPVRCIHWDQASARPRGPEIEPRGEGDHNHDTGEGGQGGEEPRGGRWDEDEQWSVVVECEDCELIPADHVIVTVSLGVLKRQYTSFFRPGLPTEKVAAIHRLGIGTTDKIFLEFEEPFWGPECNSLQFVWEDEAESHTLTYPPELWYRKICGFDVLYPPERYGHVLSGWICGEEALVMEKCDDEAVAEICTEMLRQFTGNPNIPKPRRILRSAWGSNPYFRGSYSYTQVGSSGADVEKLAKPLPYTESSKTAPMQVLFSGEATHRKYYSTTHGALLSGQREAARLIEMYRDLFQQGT

SMILES	inhibition of spermine oxidase compared with verlindamycin ([1]; assayed between 0.1 and 1.0 μM)	H3K4me2 levels ([2]; 72 hours)	IC50 [3] [µM]	association of HDAC1 and CoREST [4]	inhibition at 10 µM [5] [%]	left ventricular end diastolic pressure ([6]; 1 hour pre-treatment with 1.0 μM)	left ventricular developed pressure ([6]; pre-treatment before ischemia, after reperfusion)	mode of inhibition of spermine oxidase [1]	IC50 ([1]; assayed between 0.1 and 1.0 μM, read-out: IC50 against spermine oxidase (SMOX)) [µM]	effect on H3K4 methylation ([2]; 24 or 48 hours)	association between LSD1 and CoREST [7]	infarct area as a percentage of the total left ventricular area [8]
COc1ccccc1CNc1n[nH]c(NCc2ccccc2OC)n1 [Compound C15, N^3,N^5-bis(2-methoxybenzyl)-1H-1,2,4-triazole-3,5-diamine]	improved inhibition of spermine oxidase over verlindamycin	significant, dose-dependent increase	2.2	disrupted the association of HDAC1 and CoREST	74.9 ± 1.9							
Nc1nnc(NCc2c(Cl)cccc2Oc2ccccc2)[nH]1 [Compound C1, N^3-(2-chloro-6-phenoxybenzyl)-4H-1,2,4-triazole-3,5-diamine]	improved inhibition of spermine oxidase over verlindamycin			disrupted the association of HDAC1 and CoREST		reduced to near-normal levels	restored to nearly normal levels	competitive inhibitor	0.04	did not appear to have a significant effect	disrupted the association between LSD1 and CoREST	most effective in limiting the spread of infarct; also recorded: significantly more effective than treatment with vehicle
